Source: paper PMC11758220, “Identification of a Privileged Scaffold for Inhibition of Sterol Transport Proteins through the Synthesis and Ring Distortion of Diverse, Pseudo-Natural Products” (ACS Central Science, 2025)

These compounds were tested against T1, Aster-A (Homo sapiens, UniProt Q96CP6) (assay: In-cell isothermal shift assay in intact Jurkat cells). Settings: 10 μM, 1 h, heated to 50 °C, Western blot.
T1 construct: endogenous in cells; host or cells: Jurkat cells
T1 sequence (Q96CP6 1-724): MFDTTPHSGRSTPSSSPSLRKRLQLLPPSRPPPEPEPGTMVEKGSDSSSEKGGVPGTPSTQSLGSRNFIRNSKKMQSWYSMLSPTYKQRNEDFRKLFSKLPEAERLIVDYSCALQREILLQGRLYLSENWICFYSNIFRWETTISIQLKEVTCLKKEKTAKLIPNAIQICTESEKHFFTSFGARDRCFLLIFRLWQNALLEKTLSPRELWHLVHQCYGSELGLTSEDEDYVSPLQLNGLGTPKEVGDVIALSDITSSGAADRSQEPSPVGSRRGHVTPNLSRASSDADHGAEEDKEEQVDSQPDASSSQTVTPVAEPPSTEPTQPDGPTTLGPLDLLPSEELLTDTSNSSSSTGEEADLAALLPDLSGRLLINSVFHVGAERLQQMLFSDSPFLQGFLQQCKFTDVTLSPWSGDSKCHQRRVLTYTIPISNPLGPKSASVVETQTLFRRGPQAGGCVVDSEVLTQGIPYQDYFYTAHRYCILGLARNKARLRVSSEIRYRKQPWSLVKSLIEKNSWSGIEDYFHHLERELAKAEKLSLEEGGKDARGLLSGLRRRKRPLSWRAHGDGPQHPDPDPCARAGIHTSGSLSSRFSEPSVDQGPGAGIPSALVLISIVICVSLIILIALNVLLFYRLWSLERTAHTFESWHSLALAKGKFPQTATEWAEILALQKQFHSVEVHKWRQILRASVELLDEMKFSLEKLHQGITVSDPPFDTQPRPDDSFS
Assay type: cell-based
Procedure: Jurkat cells were cultured in RPMI 1640 GlutaMAX supplemented with 10% fetal bovine serum and 1% penicillin-streptomycin at 37 °C, 5% CO2.
In-cell thermal stability assay
To a 15 mL falcon tube were added 3 × 10^5 Jurkat cells in media and centrifuged at 300 × g for three minutes. The supernatant was aspirated, and the cells were resuspended in 4 mL media containing 0.1% DMSO. The cells were gently vortexed to avoid pelleting at 30 minutes intervals. After 1 h incubation at 37 °C and 5% CO2, the cells were washed twice with PBS and collected in 0.9 mL PBS and divided into eight aliquots, each 100 µL in PCR tubes. The aliquots were individually heated at different temperatures (Doppio 2 × 48 well Thermal cycler, VWR). After the heat treatment, 10 µL of PBS containing 4.4 %v/v NP-40 was added to each sample and cells were lysed by freeze-thaw four times. The cell lysates were transferred to 1.5 mL Eppendorf tubes and cen trifuged (Micro Star 30, VWR) at 25000 × g, 4 °C for 25 minutes. The cleared supernatants were collected and further analy sed […]
In-cell isothermal shift assay
To eight 15 mL falcon tubes were added 3 × 10^5 Jurkat cells in 1 mL of media per tube and incubated with indicated test compounds for one hour at 37 °C and 5% CO2. The cells were gently vortexed to avoid pelleting at 30 minutes intervals. After one hour incubation at 37 °C and 5% CO2, the cells were centrifuged at 300 × g for three minutes, washed once with PBS and centrifuged again at 300 × g for three minutes. The cells were then resuspended in 50 µL of PBS in PCR tubes. The samples were then heated at the given temperature (Eppendorf Mastercycler ep Gradie nt S). After the heat treatment, 5 µL of PBS containing 4.4 %v/v NP-40 were added to each sample and cells lysed by freeze-thaw four times. Finally, the cell lysates were completely transferred to 1.5 mL Eppendorf tubes and centrifuged (Micro Star 30, VMR) at 25000 × g, 4 °C for 25 minutes. The cleared supernatants were collected and further analysed by western blotting.
Sodium dodecyl sulfate-polyacrylamide gel electrophoresis and western blotting Sodium dodecyl sulfate-polyacrylamide gel electrophoresis (SDS-PAGE) experiments were carried out using 4-15% precast polyacrylamide gels (Bio-Rad) and run at a constant voltage of 100 V for ten minutes followed by 120 V for one hour. Semidry transfer onto a 0.2 µm nitrocellulose membrane was performed using Bio-Rad Trans-Blot Turbo Transfer System at 1.3 A for seven minutes. For chemiluminescent detection, membranes were blocked in 5% milk in TBST (tris -buffered saline with Tween; 137 mM NaCl, 19 mM Tris-base, 2.7 mM KCl and 0.1 %v/v Tween-20, blocking buffer) for one houre at room temperature. […]
Western blot quantification was performed using LI-COR Image Studio Lite. […]

Q: How did the “Stabilization of Aster-A toward thermal unfolding in intact Jurkat cells” value turn out when `CC12CCC3CC1CCC21C(=Nc2ccc(N4CCOCC4)cc21)O3` (single isomer, unassigned; (-)) [(−)-19a] was run?
A: Its value is “showed stabilization of Aster-A”.

Q: `CC(C)Oc1ccc(C(=O)Nc2nc3c(s2)CN(C(=O)OC(C)(C)C)CC3)cc1` [Autogramin-2, reference compound] was tested. Which “Stabilization of Aster-A toward thermal unfolding in intact Jurkat cells” value did it give?
A: Its value is “showed stabilization of Aster-A”.

Q: With `C[C@]12CC[C@@H]3C[C@H]1CC[C@@]21C(=Nc2ccc(C(F)(F)F)cc21)O3` [Compound 15g] as the compound, how does the “Stabilization of Aster-A toward thermal unfolding in intact Jurkat cells” value read?
A: The value was “showed stabilization of Aster-A”.

Q: With `CC(C)(C)OC(=O)N1CCN(c2ccc3c(c2)C24CCC5CC(CCC52C)OC4=N3)CC1` (stereo not shown) [Compound 19e] as the compound, how does the “Stabilization of Aster-A toward thermal unfolding in intact Jurkat cells” value read?
A: The value was “increased stabilization of Aster-A in intact cells”.
